Experimental findings from patent publication US20050107343A1, “Pyrrolopyrimidines and related analogs as HSP90-inhibitors” (Conforma Therapeutics Corporation, priority 2003, published 2005) are described below.

In general, IC50 refers to the concentration that gives 50% inhibition.

Some results are limits rather than exact numbers.

One test has as its system HER2/Neu protein. Put plainly: HER2 degradation assay. The note with it: Homo sapiens; 50% degradation of HER2/Neu protein, MCF7 cells, 16 h. The test is classed as cell-based. The protocol:
MCF7 breast carcinoma cells (ATCC) were grown in Dulbecco's modified Eagle's medium (DMEM) containing 10% fetal bovine serum (FBS) and 10 mM HEPES, and plated in 24 well plates (50% confluent). Twenty-four hrs later (cells are 65-70% confluent), test compounds were added and incubated overnight for 16 h. […] The wells were washed with 1 mL phosphate buffered saline (PBS), and 200 μL trypsin was added to each well. After trypsinization was complete, 50 μL of FBS was added to each well. Then 200 μL cells was transferred to 96 well plates. The cells were pipetted up and down to obtain a single cell suspension. The plates were centrifuged at 2,500 rpm for 1 min using a Sorvall Legend RT™ tabletop centrifuge (Kendro Laboratory Products, Asheville, N.C.). The cells were then washed once in PBS containing 0.2% BSA and 0.2% sodium azide (BA buffer). Phycoerythrin (PE) conjugated anti HER2/Neu antibody (Becton Dickinson, #340552), or PE conjugated anti-keyhole limpet hemocyanin [KLH] (Becton Dickinson, #340761) control antibody was added at a dilution of 1:20 and 1:40 respectively (final concentration was 1 μg/mL) and the cells were pipeted up and down to form a single cell suspension, and incubated for 15 mins. The cells were washed twice with 200 μL BA buffer, and resuspended in 200 μL BA buffer, and transferred to FACSCAN tubes with an additional 250 μL BA buffer. Samples were analyzed using a FACSCalibur™ flow cytometer (Becton Dickinson, San Jose, Calif.) equipped with Argon-ion laser that emits 15 mW of 488 nm light for excitation of the PE fluorochrome. 10,000 events were collected per sample. A fluorescence histogram was generated and the mean fluorescence intensity (MFI) of each sample was determined using Celiquest software. The background was defined as the MFI generated from cells incubated with control IgG-PE, and was subtracted from each sample stained with the HER2/Neu antibody. Cells incubated with DMSO were used as untreated controls since the compounds were resuspended in DMSO. Percent degradation of HER2 was calculated as follows: % HER2 degraded=[(MF1 untreated cells−MF1 treated cells)/MF1 untreated cell]×100
IC50 is defined as the concentration at which there was 50% degradation of the HER2/Neu protein.

In test [1] the test system is MCF7 breast carcinoma cells. Put plainly: MTS assay. The note with it: Homo sapiens, 50% reduction in viable cell number. The test is classed as cell-based. The protocol: MTS assays measure the cytotoxicity of geldanamycin derivatives. MTS (3-(4,5-dimethylthiazol-2-yl)-5-(3-carboxymethoxyphenyl)-2-(4-sulfophenyl)-2H-tetrazolium) is a tetrazolium dye that is converted to a formazan product by dehydrogenase enzymes of metabolically active cells (Corey, A. et al. “Use of an aqueous soluble tetrazolium/formazan assay for cell growth assays in culture,” Cancer Commun. 1991, 3, 207-212). Cells were seeded in 96 well plates at 2000 cells/well and allowed to adhere overnight in Dulbecco's modified Eagle's medium supplemented with 10% fetal bovine serum. The final culture volume was 100 μl. Viable cell number was determined by using the Celltiter 96 AQueous Non-radioactive Cell Proliferation Assay (Promega, Madison Wis.). The MTS /PMS (phenazine methosulfate) solution was mixed at a ratio of 20:1, and 20 μL was added per well to 100 μl of culture medium. After 2-4 hours, the formation of the formazan product was measured at 490 nm absorbance using a multiwell plate spectrophotometer. Background was determined by measuring the Abs 490 nm of cell culture medium and MTS-PMS in the absence of cells and was subtracted from all values. Percent viable cells was calculated as follows: % viable cells=(Abs at 490 nm treated cells/Abs at 490 nm untreated cells)×100
The effect of selected compounds of the invention on MCF7 breast carcinoma cells according to the MTS assay is summarized in Table 2. IC50 was defined as the concentration of the compound which gave rise to 50% reduction in viable cell number.
On the technique in general: Tetrazolium dyes change colour on reduction, which living cells bring about.

In test [2] the test system is rHSP90 in the MCF7 cell lysates. Put plainly: Cell lysate binding assay. The note with it: 50% inhibition of biotin-GM binding to rHSP90 in MCF7 cell lysates. The protocol: Cell Lysate Binding Assay
MCF7 breast carcinoma cell lysates were prepared by douncing in lysing buffer (20 mM HEPES, pH 7.3, 1 mM EDTA, 5 mM MgCl2, 100 mM KCl), and then incubated with or without test compound for 30 mins at 4° C., followed by incubation with biotin-GM linked to BioMag™ streptavidin magnetic beads (Qiagen) for 1 hr at 4° C. The tubes were placed on a magnetic rack, and the unbound supernatant removed. The magnetic beads were washed three times in lysis buffer and boiled for 5 mins at 95° C. in SDS-PAGE sample buffer. Samples were analyzed on SDS protein gels, and Western blots were done for rHSP90. Bands in the Western Blots were quantitated using the Bio-rad Fluor-S MultiImager, and the % inhibition of binding of rHSP90 to the biotin-GM was calculated.
The IC50 reported is the concentration of test compound needed to achieve 50% inhibition of the biotin-GM binding to rHSP90 in the MCF7 cell lysates.

In the test with HER2/Neu protein, `COc1c(C)cnc(CN2C(=O)Cc3c(Cl)nc(N)nc32)c1C` yielded an IC50 of 450 nM.
Consider `COc1c(C)cnc(Cn2ccc3c(Cl)nc(N)nc32)c1C` [Example 5, 4-Chloro-7-(4-methoxy-3,5-dimethyl-pyridin-2-ylmethyl)-7H-pyrrolo[2,3-d]pyrimidin-2-ylamine], for which the IC50 was 300 nM in test [1], 150 nM in test [2] and 95 nM in the test on HER2/Neu protein.
Turning to `COc1c(C)c[n+]([O-])c(Cn2ccc3c(Cl)nc(N)nc32)c1C` [Example 8, 4-Chloro-7-(4-methoxy-3,5-dimethyl-1-oxy-pyridin-2-ylmethyl)-7H-pyrrolo[2,3-d]pyrimidin-2-ylamine], the values for the IC50 (in test [1]; with HER2/Neu protein) were 100 nM and 23 nM, respectively.
With `COc1c(C)c(Cl)nc(Cn2ccc3c(Cl)nc(N)nc32)c1C` [Example 10, 4-Chloro-7-(6-chloro-4-methoxy-3,5-dimethyl-pyridin-2-ylmethyl)-7H-pyrrolo [2,3-d]pyrimidin-2-ylamine], the IC50 in test [1] turned out to be 600 nM; in the test with HER2/Neu protein, 250 nM.
As for `Cc1cnc(Cn2ccc3c(Cl)nc(N)nc32)c(C)c1Cl` [Example 11, 4-Chloro-7-(4-chloro-3,5-dimethyl-pyridin-2-ylmethyl)-7H-pyrrolo[2,3-d]pyrimidin-2-ylamine], the IC50 in test [1] was 200 nM; in test [2] it was 90 nM; with HER2/Neu protein, 80 nM.
For `Cc1cnc(Cn2ccc3c(Cl)nc(N)nc32)c(C)c1Br` [Example 13, 7-(4-Bromo-3,5-dimethyl-pyridin-2-ylmethyl)-4-chloro-7H-pyrrolo[2,3-d]pyrimidin-2-ylamine], the figures for the 50% inhibitory concentration (IC50) (in test [1]; in test [2]; in the test on HER2/Neu protein) were 1000 nM, 90 nM and 50 nM, respectively.
For `Cc1c[n+]([O-])c(Cn2ccc3c(Cl)nc(N)nc32)c(C)c1Cl` [Example 14, 4-Chloro-7-(4-chloro-3,5-dimethyl-1-oxy-pyridin-2-ylmethyl)-7H-pyrrolo[2,3-d]pyrimidin-2-ylamine], the figures for the IC50 (in test [1]; in test [2]; with HER2/Neu protein) were 1000 nM, 50 nM and 38 nM, respectively.
Taken in the same sequence, the figures for `Cc1c[n+]([O-])c(Cn2ccc3c(Cl)nc(N)nc32)c(C)c1Br` [Example 15, 7-(4-Bromo-3,5-dimethyl-1-oxy-pyridin-2-ylmethyl)-4-chloro-7H-pyrrolo[2,3-d]pyrimidin-2-ylamine] were 23 nM, 30 nM and 15 nM.
Consider `COc1c(C)c[n+]([O-])c(Cn2ccc3c(Br)nc(N)nc32)c1C` [Example 20, 4-Bromo-7-(4-methoxy-3,5-dimethyl-1-oxy-pyridin-2-ylmethyl)-7H-pyrrolo[2,3-d]pyrimidin-2-ylamine], for which the IC50 is 1000 nM in test [1] and 42 nM in the test on HER2/Neu protein.
On to `Cc1cnc(Cn2ccc3c(Br)nc(N)nc32)c(C)c1Cl` [Example 21, 4-Bromo-7-(4-chloro-3,5-dimethyl-pyridin-2-ylmethyl)-7H-pyrrolo[2,3-d]pyrimidin-2-ylamine], for which the IC50 in test [1] is > 10000 nM; in the test on HER2/Neu protein it was 170 nM.
As for `Cc1c[n+]([O-])c(Cn2ccc3c(Br)nc(N)nc32)c(C)c1Cl` [Example 22, 4-Bromo-7-(4-chloro-3,5-dimethyl-1-oxy-pyridin-2-ylmethyl)-7H-pyrrolo[2,3-d]pyrimidin-2-ylamine], the IC50 was 1000 nM in test [1] and 65 nM with HER2/Neu protein.
Turning to `Cc1cnc(Cn2ccc3c(Br)nc(N)nc32)c(C)c1Br` [Example 23, 4-Bromo-7-(4-bromo-3,5-dimethyl-pyridin-2-ylmethyl)-7H-pyrrolo[2,3-d]pyrimidin-2-ylamine], the IC50 in test [1] was > 10000 nM; in the test on HER2/Neu protein, 130 nM.
As to `Cc1c[n+]([O-])c(Cn2ccc3c(Br)nc(N)nc32)c(C)c1Br` [Example 24, 4-Bromo-7-(4-bromo-3,5-dimethyl-1-oxy-pyridin-2-ylmethyl)-7H-pyrrolo[2,3-d]pyrimidin-2-ylamine], the IC50 worked out at 300 nM in test [1] and 25 nM with HER2/Neu protein.
The like results for `COc1c(C)cnc(Cn2ccc3c(Br)nc(N)nc32)c1C` [Example 25, 4-Bromo-7-(4-methoxy-3,5-dimethyl-pyridin-2-ylmethyl)-7H-pyrrolo[2,3-d]pyrimidin-2-ylamine] were, in that order, > 10000 nM and 150 nM.
Turning to `COc1c(C)cnc(Cn2cc(C(C)C)c3c(Cl)nc(N)nc32)c1C` [Example 43, 4-Chloro-5-isopropyl-7-(4-methoxy-3,5-dimethyl-pyridin-2-ylmethyl)-7H-pyrrolo[2,3-d]pyrimidin-2-ylamine], the IC50 in the test on HER2/Neu protein is 130 nM.
`Cc1c[n+]([O-])c(Cn2cc(C(C)C)c3c(Cl)nc(N)nc32)c(C)c1Cl` [Example 45] showed an IC50 in the test on HER2/Neu protein of 20 nM.
For `Cc1cnc(CN2C(=O)Cc3c(Cl)nc(N)nc32)c(C)c1Cl` [Example 48, 2-Amino-4-chloro-7-(4-chloro-3,5-dimethyl-pyridin-2-ylmethyl)-5,7-dihydro-pyrrolo[2,3-d]pyrimidin-6-one], in the test with HER2/Neu protein, the IC50 worked out at 1500 nM.
With `COc1c(C)c[n+]([O-])c(CN2C(=O)Cc3c(Cl)nc(N)nc32)c1C` [Example 49, 2-Amino-4-chloro-7-(3,5-dimethyl-4-methoxy-1-oxy-pyridin-2-ylmethyl)-5,7-dihydro-pyrrolo[2,3-d]pyrimidin-6-one], the IC50 in test [1] stood at 900 nM; in the test on HER2/Neu protein it was 180 nM.
In the case of `COc1cc(CN2C(=O)Cc3c(Cl)nc(N)nc32)c(Br)c(OC)c1OC` [Example 52, 2-Amino-4-chloro-7-(2-bromo-3,4,5-trimethoxy-benzyl)-5,7-dihydro-pyrrolo[2,3-d]pyrimidin-6-one], the IC50 in test [1] worked out at 10000 nM; in the test with HER2/Neu protein, 400 nM.
